In paper PMC3056882 (Steroids, 2011):
Read-outs that look alike come from different tables or passages of the source.

Assays:
AKR1D1 [1] = target: T1, AKR1D1 (Homo sapiens, UniProt P51857); settings: cited from earlier work
T1 sequence (P51857 1-326): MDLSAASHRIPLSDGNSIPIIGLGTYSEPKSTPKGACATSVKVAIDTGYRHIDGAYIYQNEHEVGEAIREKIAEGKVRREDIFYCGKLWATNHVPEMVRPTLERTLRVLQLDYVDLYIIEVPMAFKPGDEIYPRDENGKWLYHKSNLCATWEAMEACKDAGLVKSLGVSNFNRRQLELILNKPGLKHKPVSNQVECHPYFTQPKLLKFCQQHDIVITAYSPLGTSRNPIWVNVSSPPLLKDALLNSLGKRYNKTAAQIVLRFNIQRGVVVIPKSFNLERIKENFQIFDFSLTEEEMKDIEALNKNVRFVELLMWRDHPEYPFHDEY

AKR1D1 [2] = target: T1, AKR1D1; assay: Inhibition of [4-14C]-testosterone reduction, radiometric assay; type: biochemical; settings: for ability to inhibit the AKR1D1 dependent reduction of testosterone: result in words; for mode of inhibition of AKR1D1: C, competitive inhibition, NC, non-competitive inhibition
AKR1C2 = settings: read-out: Ki AKR1C2; competitive (C); ref Bauman et al., 2005 [28]; cited from earlier work
AKR1C1 = settings: read-out: Ki AKR1C1; competitive (C); ref Bauman et al., 2005 [28]; cited from earlier work
AKR1C3 = settings: read-out: Ki AKR1C3; competitive (C); ref Bauman et al., 2005 [28]; cited from earlier work
AKR1D1 [3] = target: T1, AKR1D1; type: biochemical; settings: for Km / kcat: fluorimetric, pH 6.0, 15 μM NADPH, 37 °C
aldose reductase AKR1B1 = settings: read-out: Kd of NADPH for aldose reductase AKR1B1; cited from earlier work
AKR1D1 [4] = target: T1, AKR1D1; assay: Dissociation constant of AKR1D1-NADPH binary complex by fluorescence titration; type: binding
[5] = substrate: C[C@]12CCC(=O)C=C1CC[C@@H]1[C@@H]2[C@@H](O)C[C@@]2(C)[C@H]1CC[C@]2(O)C(=O)CO; type: biochemical, human; settings: other: fluorimetric, pH 6.0, 15 μM NADPH, 37 °C
[6] = substrate: C[C@]12CCC(=O)C=C1CC[C@@H]1[C@@H]2[C@@H](O)C[C@]2(C=O)[C@@H](C(=O)CO)CC[C@@H]12; type: biochemical, human; settings: other: fluorimetric, pH 6.0, 15 μM NADPH, 37 °C
[7] = substrate: C[C@]12CC[C@H]3[C@@H](CCC4=CC(=O)CC[C@@]43C)[C@@H]1CC[C@H]2O; type: biochemical, human; settings: other: fluorimetric, pH 6.0, 15 μM NADPH, 37 °C
[8] = read-out: Ki (substrate inhibition), dissociation constant for substrate from the E-NADP(H) complex, N.D. = not detected
[9] = dissociation constant for substrate from the E-NADP(H) complex, N.D. = not detected
[10] = ref Di Costanzo et al., 2008 [13]

In the case of C[C@]12CC[C@H]3[C@@H](CCC4=CC(=O)C=C[C@@]43C)[C@@H]1CC[C@@H]2O [1,4-Androstadien-17β-ol-3-one], the Km (AKR1D1 [1]; ref Drury et al., 2009 [14]) is listed as 3.2 ± 0.2 µM and the kcat (AKR1D1 [1]; ref Drury et al., 2009 [14]) is listed as 0.035 ± 0.0017 s⁻¹.

For O=C(O)c1ccc(C(=O)c2ccccc2)cc1 [4-Benzoylbenzoic acid], the Ki (AKR1D1 [2]) is given as over 100 µM, the “ability to inhibit the AKR1D1 dependent reduction of testosterone” value (AKR1D1 [2]) is given as “ineffective” and the Ki (AKR1C2) is given as 13.3 µM. The Ki (AKR1C1) was 12.5 µM and the Ki (AKR1C3) was 1.9 µM.

For CC(C)CCC[C@@H](C)[C@H]1CC[C@H]2[C@@H]3[C@H](O)CC4=CC(=O)CC[C@]4(C)[C@H]3CC[C@]12C [4-Cholesten-7α-ol-3-one], the Km (AKR1D1 [3]) was 0.8 ± 0.2 µM and the kcat (AKR1D1 [3]) was 0.0333 ± 0.0017 s⁻¹.

Work on C[C@]12CC[C@H]3[C@@H](CCC4=CC(=O)CC[C@@H]43)[C@@H]1CC[C@@H]2O [4-Estren-17β-ol-3-one] yielded a Km (AKR1D1 [3]) of 3 ± 0.5 µM, a kcat (AKR1D1 [3]) of 0.045 ± 0.0033 s⁻¹ and a Ki (AKR1D1 [3]; [8]) of 18.6 ± 3.4 µM.

C[C@]12CC[C@H]3[C@@H](CCC4=CC(=O)CC[C@@]43C)[C@@H]1CC[C@@H]2C(=O)CO [11-deoxycorticosterone] gave a Ki (AKR1D1 [3]) of under 2 µM, a Km (AKR1D1 [3]) of under 0.2 µM and a kcat (AKR1D1 [3]) of over 0.067 s⁻¹.

With C[C@]12CCC(=O)C=C1CC[C@@H]1[C@@H]2[C@@H](O)C[C@]2(C=O)[C@@H](C(=O)CO)CC[C@@H]12 [Aldosterone] the Ki (AKR1D1 [3]) was 66.5 ± 15.7 µM.

For C[C@H](CCC(=O)O)[C@H]1CC[C@H]2[C@@H]3[C@H](O)C[C@@H]4C[C@H](O)CC[C@]4(C)[C@H]3CC[C@]12C [Chenodeoxycholic acid], the Ki (AKR1D1 [2]) is given as 3.2 µM, the “mode of inhibition of AKR1D1” value (AKR1D1 [2]) is given as “non-competitive” and the Ki (AKR1C2) is given as 0.017 µM. For the same molecule, the Ki (AKR1C1) was 8.3 µM and the Ki (AKR1C3) was 10 µM.

CC(C)CCC[C@@H](C)[C@H]1CC[C@H]2[C@@H]3CCC4=CC(=O)CC[C@]4(C)[C@H]3CC[C@]12C [Cholestenone] showed a Km (AKR1D1 [3]) of 0.3 ± 0.1 µM and a kcat (AKR1D1 [3]) of 0.01 ± 0.00067 s⁻¹.

With C[C@]12C[C@H](O)[C@H]3[C@@H](CCC4=CC(=O)CC[C@@]43C)[C@@H]1CC[C@@H]2C(=O)CO [Corticosterone] the “Ki (substrate inhibition)” value (AKR1D1 [3]; [9]) was “do not exhibit substrate inhibition”, the Km (AKR1D1 [3]) was 2.2 ± 0.5 µM and the kcat (AKR1D1 [3]) was 0.0317 ± 0.0017 s⁻¹.

For C[C@]12CCC(=O)C=C1CC[C@@H]1[C@@H]2[C@@H](O)C[C@@]2(C)[C@H]1CC[C@]2(O)C(=O)CO [Cortisol], the “Ki (substrate inhibition)” value (AKR1D1 [3]; [9]) was “do not exhibit substrate inhibition”.

For C[C@]12CCC(=O)C=C1CC[C@@H]1[C@@H]2C(=O)C[C@@]2(C)[C@H]1CC[C@]2(O)C(=O)CO [Cortisone], the Km (AKR1D1 [3]) was 15.1 ± 0.3 µM and the kcat (AKR1D1 [3]) was 0.195 ± 0.0017 s⁻¹.

Molecule C[C@]12CC[C@H]3[C@@H](CCC4=CC(=O)CC[C@@]43C)[C@@H]1CC[C@H]2O [Epitestosterone] has a Ki (AKR1D1 [3]) of 10 ± 2.2 µM.

In the case of COc1ccc2c(c1)c(CC(=O)O)c(C)n2C(=O)c1ccc(Cl)cc1 [Indomethacin], the Ki (AKR1D1 [2]) is reported as over 100 µM and the “ability to inhibit the AKR1D1 dependent reduction of testosterone” value (AKR1D1 [2]) is reported as “ineffective”.

In the case of Cc1cccc(Nc2ccccc2C(=O)O)c1C [Mefenamic acid], the Ki (AKR1D1 [2]) is given as over 100 µM, the “ability to inhibit the AKR1D1 dependent reduction of testosterone” value (AKR1D1 [2]) is given as “ineffective” and the Ki (AKR1C1) is given as 0.8 µM.

For C[C@]12CC[C@H]3[C@@H](CCC4=CC(=O)CC[C@@]43C)[C@@H]1CC[C@@H]2O [Testosterone], the Ki (AKR1D1 [1]; read-out: Ki (substrate inhibition), ref Di Costanzo et al., 2008 [13]) is listed as 14.5 ± 5.8 µM, the Km (AKR1D1 [1]; [10]) is listed as 2.7 ± 1.2 µM and the kcat (AKR1D1 [1]; [10]) is listed as 0.14 ± 0.0333 s⁻¹.

In the case of C[C@H](CCC(=O)O)[C@H]1CC[C@H]2[C@@H]3[C@@H](O)C[C@@H]4C[C@H](O)CC[C@]4(C)[C@H]3CC[C@]12C [Ursodeoxycholic acid], the Ki (AKR1D1 [2]) is given as 9.8 µM, the “mode of inhibition of AKR1D1” value (AKR1D1 [2]) is given as “non-competitive” and the Ki (AKR1C2) is given as 0.011 µM. The Ki (AKR1C1) was 4.9 µM and the Ki (AKR1C3) was 1.3 µM.

With CC(=O)[C@H]1CC[C@H]2[C@@H]3CCC4=CC(=O)CC[C@]4(C)[C@H]3CC[C@]12C [progesterone] the Ki (AKR1D1 [3]) was under 2 µM, the Km (AKR1D1 [3]) was under 0.2 µM and the kcat (AKR1D1 [3]) was over 0.067 s⁻¹.

C[C@]12CCC(=O)C=C1CC[C@@H]1[C@@H]2CC[C@]2(C)C(=O)CC[C@@H]12 [Δ^4-Androstene-3,17-dione] showed a Km (AKR1D1 [3]) of 0.9 ± 0.2 µM, a kcat (AKR1D1 [3]) of 0.1 ± 0.013 s⁻¹ and a Ki (AKR1D1 [3]; [8]) of 4.3 ± 1.3 µM.

In the case of NADPH, the Kd (aldose reductase AKR1B1) is listed as 0.009 µM, the “Kd fold higher than AKR1B1” value (AKR1D1 [4]; AKR1D1 vs AKR1B1 (human aldose reductase)) is listed as 5 fold and the Kd (AKR1D1 [4]; read-out: dissociation constant (Kd) of NADPH for wild-type AKR1D1, fluorescence titration, 10 mM potassium phosphate pH 6.0, 37 °C) is listed as 0.043 ± 0.016 µM.

B1: AKR1D1 (Homo sapiens) (protein)
chain: T1 sequence (P51857 1-326)
Molecule B1 has a Km [5] of 13.1 ± 1.8 µM, a kcat [5] of 0.045 ± 0.00167 s⁻¹ and a kcat/Km [5] of 3500 M⁻¹ s⁻¹. The Km [6] was 2.5 ± 0.4 µM, the kcat [6] was 0.15 ± 0.01 s⁻¹ and the kcat/Km [6] was 61300 M⁻¹ s⁻¹. For the same molecule, the Km [7] was 2.9 ± 0.6 µM, the kcat [7] was 0.1 ± 0.0117 s⁻¹ and the kcat/Km [7] was 34800 M⁻¹ s⁻¹.
